# Reference: PubChem BioAssay AID330 (DTP/NCI, 2004)
# Values joined by “and” are separate entries in the source; they are usually repeats but may differ in a detail not shown here. Equal entries are not always repeated. Inconclusive results and toxic doses are left out.
# Tested on: P388 leukemia ip, CD2F1 mice, survival T/C
# Assay: NCI In Vivo Anticancer Drug Screen. Data for tumor model P388 Leukemia (intraperitoneal) in CD2F1 (CDF1) mice
# Details: endpoint: median survival time, higher = longer survival
# Procedure, shortened: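 Mice carrying the transplanted tumor received test compound or vehicle. Survival was recorded in each group, and the value is the treated-group measurement divided by that of the vehicle-treated control group.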
# [1] = dose: 100.0 mg/kg/injection, schedule: Q01DX009 (ip), vehicle: saline with Tween-80
# [2] = dose: 100.0 mg/kg/injection, schedule: Q01DX001 (ip), vehicle: saline with Tween-80
# [3] = dose: 200.0 mg/kg/injection, schedule: Q01DX001 (ip), vehicle: saline with Tween-80
# [4] = dose: 400.0 mg/kg/injection, schedule: Q01DX001 (ip), vehicle: saline with Tween-80
# [5] = dose: 60.0 mg/kg/injection, schedule: Q01DX005 (ip), vehicle: saline with Tween-80
# [6] = dose: 120.0 mg/kg/injection, schedule: Q01DX005 (ip), vehicle: saline with Tween-80
# [7] = dose: 240.0 mg/kg/injection, schedule: Q01DX005 (ip), vehicle: saline with Tween-80
# [8] = dose: 50.0 mg/kg/injection, schedule: Q01DX009 (ip), vehicle: Klucel (hydroxypropylcellulose) (HPC)
# [9] = dose: 100.0 mg/kg/injection, schedule: Q01DX009 (ip), vehicle: Klucel (hydroxypropylcellulose) (HPC)
# [10] = dose: 200.0 mg/kg/injection, schedule: Q01DX009 (ip), vehicle: Klucel (hydroxypropylcellulose) (HPC)
# [11] = dose: 50.0 mg/kg/injection, schedule: Q01DX005 (ip), vehicle: Klucel (hydroxypropylcellulose) (HPC)
# [12] = dose: 100.0 mg/kg/injection, schedule: Q01DX005 (ip), vehicle: Klucel (hydroxypropylcellulose) (HPC)
# [13] = dose: 200.0 mg/kg/injection, schedule: Q01DX005 (ip), vehicle: Klucel (hydroxypropylcellulose) (HPC)
# [14] = dose: 60.0 mg/kg/injection, schedule: Q01DX005 (ip), vehicle: Klucel (hydroxypropylcellulose) (HPC)
# [15] = dose: 120.0 mg/kg/injection, schedule: Q01DX005 (ip), vehicle: Klucel (hydroxypropylcellulose) (HPC)
# [16] = dose: 25.0 mg/kg/injection, schedule: Q01DX005 (ip), vehicle: saline with Tween-80
smiles,measurement,setting,value
CCOC(=O)Cc1cccc(C)n1,T/C,[1],100 % of control
same,T/C,"dose: 200.0 mg/kg/injection, schedule: Q01DX009 (ip), vehicle: saline with Tween-80",109 % of control
same,T/C,"dose: 400.0 mg/kg/injection, schedule: Q01DX009 (ip), vehicle: saline with Tween-80",104 % of control
CCOP(=O)(Nc1cc(C)ccc1C)OCC,T/C,"dose: 50.0 mg/kg/injection, schedule: Q01DX009 (ip), vehicle: saline",100 % of control
same,T/C,[2],105 % of control
same,T/C,"dose: 100.0 mg/kg/injection, schedule: Q01DX009 (ip), vehicle: saline",104 % of control
same,T/C,[3],112 % of control
same,T/C,"dose: 200.0 mg/kg/injection, schedule: Q01DX009 (ip), vehicle: saline",106 % of control
same,T/C,[4],109 % of control
CC1=CC2=C(C#N)C(=O)OC2(C)C(c2ccccc2)C1 (configuration not stated),T/C,[5],100 % of control
same,T/C,[6],101 % of control
same,T/C,[7],100 % of control
NNC(=O)COCC(=O)NN,T/C,"dose: 25.0 mg/kg/injection, schedule: Q01DX009 (ip), vehicle: Klucel (hydroxypropylcellulose) (HPC)",106 % of control
same,T/C,[8],100 % of control
same,T/C,[9],104 % of control
same,T/C,[10],100 % of control
CCN=P1(N(C(C)C)C(C)C)N(CC)N=NN1C(C)(C)C (configuration not stated),T/C,"dose: 1.56 mg/kg/injection, schedule: Q01DX005 (ip), vehicle: Klucel (hydroxypropylcellulose) (HPC)",102 % of control
same,T/C,"dose: 3.12 mg/kg/injection, schedule: Q01DX005 (ip), vehicle: Klucel (hydroxypropylcellulose) (HPC)",104 % of control
same,T/C,"dose: 6.25 mg/kg/injection, schedule: Q01DX005 (ip), vehicle: Klucel (hydroxypropylcellulose) (HPC)",100 % of control
same,T/C,"dose: 12.5 mg/kg/injection, schedule: Q01DX005 (ip), vehicle: Klucel (hydroxypropylcellulose) (HPC)",104 % of control
same,T/C,[11],111 % of control
Cc1ccc(C)c(NC(=O)Nc2ccc(C(=O)O)cc2)c1,T/C,[8],105 % of control
same,T/C,[9],105 % of control
same,T/C,[10],102 % of control
COc1cc(/C=C/Cc2cc3c(cc2OCCO)OCO3)cc(OC)c1OC,T/C,[5],94 % of control
same,T/C,[6],92 % of control
same,T/C,[7],101 % of control
O=c1[nH]cc(CN(CCO)CCO)c(=O)[nH]1,T/C,"dose: 50.0 mg/kg/injection, schedule: Q01DX005 (ip), vehicle: saline",106 % of control
same,T/C,"dose: 100.0 mg/kg/injection, schedule: Q01DX005 (ip), vehicle: saline",105 % of control
same,T/C,"dose: 200.0 mg/kg/injection, schedule: Q01DX005 (ip), vehicle: saline",99 % of control
CN(C)C1C(=O)C(C(=O)NC[N+]23CCO[B-]2(c2ccc(Cl)cc2)OCC3)=C(O)C2(O)C(=O)C3=C(O)c4c(O)cccc4C(C)(O)C3CC12 (configuration not stated),T/C,"dose: 25.0 mg/kg/injection, schedule: Q01DX005 (ip), vehicle: Klucel (hydroxypropylcellulose) (HPC)",111 % of control
same,T/C,[11],107 % of control and 108 % of control and 110 % of control
same,T/C,[12],108 % of control (2×) and 114 % of control
same,T/C,[13],108 % of control and 119 % of control and 120 % of control
CCOC(=O)C(CCCCn1cnc2ncnc(Cl)c21)(NC(C)=O)C(=O)OCC,T/C,"dose: 100.0 mg/kg/injection, schedule: Q01DX001 (ip), vehicle: Klucel (hydroxypropylcellulose) (HPC)",105 % of control
same,T/C,"dose: 200.0 mg/kg/injection, schedule: Q01DX001 (ip), vehicle: Klucel (hydroxypropylcellulose) (HPC)",107 % of control
same,T/C,"dose: 400.0 mg/kg/injection, schedule: Q01DX001 (ip), vehicle: Klucel (hydroxypropylcellulose) (HPC)",102 % of control
CN1CCCN(C)C1c1cc(Cl)ccc1O,T/C,"dose: 6.25 mg/kg/injection, schedule: Q01DX009 (ip), vehicle: saline sonified",90 % of control
same,T/C,"dose: 12.5 mg/kg/injection, schedule: Q01DX009 (ip), vehicle: saline sonified",100 % of control
same,T/C,"dose: 25.0 mg/kg/injection, schedule: Q01DX009 (ip), vehicle: saline sonified",90 % of control
CC(C)CC1N=C(NN=C(CCl)CCl)SP1(=O)NCCCCCCNP1(=O)SC(NN=C(CCl)CCl)=NC1CC(C)C (configuration not stated),T/C,[14],100 % of control
same,T/C,[15],103 % of control
same,T/C,"dose: 240.0 mg/kg/injection, schedule: Q01DX005 (ip), vehicle: Klucel (hydroxypropylcellulose) (HPC)",102 % of control
CCCCCCCCCCCCCCC[N+]1(CC)CCCC1,T/C,"dose: 0.78 mg/kg/injection, schedule: Q01DX009 (ip), vehicle: saline",108 % of control
same,T/C,"dose: 1.56 mg/kg/injection, schedule: Q01DX009 (ip), vehicle: saline",114 % of control
same,T/C,"dose: 3.12 mg/kg/injection, schedule: Q01DX009 (ip), vehicle: saline",114 % of control
O=c1c2ccccc2nc2ccc(Cl)nn12,T/C,"dose: 50.0 mg/kg/injection, schedule: Q01DX009 (ip), vehicle: saline with Tween-80",95 % of control
same,T/C,[1],100 % of control
CN(C)c1nc2c(N)ncnc2n1C1OC(CO)C(O)C1O (configuration not stated),T/C,"dose: 12.5 mg/kg/injection, schedule: Q01DX005 (ip), vehicle: saline with Tween-80",100 % of control and 106 % of control
same,T/C,[16],103 % of control and 106 % of control
same,T/C,"dose: 50.0 mg/kg/injection, schedule: Q01DX005 (ip), vehicle: saline with Tween-80",112 % of control and 113 % of control
same,T/C,"dose: 100.0 mg/kg/injection, schedule: Q01DX005 (ip), vehicle: saline with Tween-80",123 % of control
CC(CO)CCC1OC2CC3C4CC=C5CC(O)CCC5(C)C4CCC3(C)C2C1C (configuration not stated),T/C,"dose: 2.25 mg/kg/injection, schedule: Q01DX005 (ip), vehicle: Klucel (hydroxypropylcellulose) (HPC)",98 % of control
same,T/C,"dose: 4.5 mg/kg/injection, schedule: Q01DX005 (ip), vehicle: Klucel (hydroxypropylcellulose) (HPC)",100 % of control
same,T/C,"dose: 9.0 mg/kg/injection, schedule: Q01DX005 (ip), vehicle: Klucel (hydroxypropylcellulose) (HPC)",88 % of control
same,T/C,"dose: 36.0 mg/kg/injection, schedule: Q01DX005 (ip), vehicle: Klucel (hydroxypropylcellulose) (HPC)",87 % of control
CO[C@@]12[C@@H]3N[C@@H]3CN1C1=C(C(=O)C(N3CCCC3)=C(C)C1=O)[C@@H]2COC(N)=O,T/C,"dose: 0.78 mg/kg/injection, schedule: Q01DX005 (ip), vehicle: saline with Tween-80",193 % of control
same,T/C,"dose: 3.75 mg/kg/injection, schedule: Q01DX005 (ip), vehicle: saline with Tween-80",186 % of control
same,T/C,"dose: 10.4 mg/kg/injection, schedule: Q01DX005 (ip), vehicle: saline with Tween-80",214 % of control
same,T/C,"dose: 17.4 mg/kg/injection, schedule: Q01DX005 (ip), vehicle: saline with Tween-80",214 % of control
same,T/C,[16],87 % of control
COC1CC(O)C2OC(c3ccccc3)OCC2O1 (configuration not stated),T/C,[2],101 % of control
same,T/C,[3],105 % of control
same,T/C,[4],99 % of control
CCC(C)C(NC(=O)OCC1c2ccccc2-c2ccccc21)C(=O)O (configuration not stated),T/C,[11],100 % of control
same,T/C,[12],100 % of control
same,T/C,[13],104 % of control
O=P(N1CCCCC1)(N1CC1)N1CC1,T/C,"dose: 5.0 mg/kg/injection, schedule: Q04DX003 (ip), vehicle: saline",108 % of control
same,T/C,"dose: 5.56 mg/kg/injection, schedule: Q01DX009 (ip), vehicle: saline",195 % of control
same,T/C,"dose: 6.25 mg/kg/injection, schedule: Q01DX009 (ip), vehicle: saline",163 % of control
same,T/C,"dose: 10.0 mg/kg/injection, schedule: Q04DX003 (ip), vehicle: saline",120 % of control
same,T/C,"dose: 12.5 mg/kg/injection, schedule: Q01DX009 (ip), vehicle: saline",227 % of control and 86 % of control
same,T/C,"dose: 20.0 mg/kg/injection, schedule: Q04DX003 (ip), vehicle: saline",220 % of control
same,T/C,"dose: 25.0 mg/kg/injection, schedule: Q01DX009 (ip), vehicle: saline",90 % of control
CNc1nc(-c2ccccc2)c(-c2ccccc2)[nH]1,T/C,"dose: 6.25 mg/kg/injection, schedule: Q04DX002 (ip), vehicle: saline",105 % of control
same,T/C,"dose: 12.5 mg/kg/injection, schedule: Q04DX002 (ip), vehicle: saline",100 % of control
same,T/C,"dose: 25.0 mg/kg/injection, schedule: Q04DX002 (ip), vehicle: saline",97 % of control
O=C1C2=C(Nc3ccccc3N2)OC1c1ccccc1Cl (configuration not stated),T/C,[14],97 % of control
same,T/C,[15],97 % of control
[Cu+2].[O-]/C(=N\N=C\c1ccccn1)c1ccccc1O.[O-]/C(=N\N=C\c1ccccn1)c1ccccc1O,T/C,"dose: 50.0 mg/kg/injection, schedule: Q04DX002 (ip), vehicle: saline with Tween-80",98 % of control
same,T/C,"dose: 100.0 mg/kg/injection, schedule: Q04DX002 (ip), vehicle: saline with Tween-80",95 % of control
same,T/C,"dose: 200.0 mg/kg/injection, schedule: Q04DX002 (ip), vehicle: saline with Tween-80",94 % of control
